According to patent publication US7902373B2 (Pfizer Inc, priority 2006, dated 2011):
Structures can show the parent of a compound that is named as a salt.

Legend:
human recombinant H-PGDS [1] = target: T1, human recombinant H-PGDS (Homo sapiens, UniProt O60760); assay: Fluorescence intensity h-PGDS TBA enzyme assay; type: biochemical; conditions: Examples up to 622 (and 3a, 3b)
[2] = test system: A. suum antigen-induced asthmatic response in conscious sheep; assay: In vivo assay, anti-asthmatic effects in a sheep model of asthma; conditions: i.v. infusion, single dose of 1, 0.3 or 0.1 mg/kg, specific lung resistance (RL)
Description: In vivo Assay—Anti-Asthmatic Effects in a Sheep Model of Asthma A validated model of A. suum antigen-induced asthmatic response in conscious sheep was used to evaluate the pharmacokinetic properties, inhibition of antigen-induced early and late airway bronchoconstriction in the lung by compound (Abraham, W. M., et al., Am Rev Respir Dis 1991; 143:787-796). […] An aerosol of A. suum extract, generated using a disposable medical nebulizer (Raindrop®, Puritan Bennett) was delivered in at a tidal volume of 500 mL and a rate of 20 breaths/min. A compound of Example 2 was delivered by i.v. infusion over the interval t=0-20 min prior to antigen challenge. A single dose of 1, 0.3 or 0.1 mg//kg was evaluated. Baseline and post-drug measurements of specific lung resistance (RL) were obtained immediately prior to challenge (t=30 min) with A. suum antigen, immediately after challenge and then hourly from 1 to 6 h post challenge and on the half-hour from 6.5, 5-8 h post challenge. Measurements of RL were obtained 24 h post challenge, followed by the 24 h post-challenge dose-response curve for carbachol. […] To assess airway responsiveness, the cumulative carbachol dose in breath units (BU) that increased RL 400% over the post-buffer value (i.e., PC400) were calculated from the dose-response curve. […]

human recombinant H-PGDS [3] = target: T1, human recombinant H-PGDS; assay: Slightly modified h-PGDS TBA enzyme assay (Examples 623 onwards); type: biochemical
Description: Prostaglandin D Synthase (PGDS) converts the substrate prostaglandin H2 (PGH2) to prostaglandin D2.
Examples 623 onwards were tested in a slightly modified assay: The enzyme assay (30 μls during biological process) contained 100 mM Trizma pH 8.0, 100 μM MgCl2, 0.1 mg/ml IgG Rabbit serum, 5.0 μM PGH2 (Cayman; ethanol solution, #17020), 2.5 mM L-Glutathione (Sigma; reduced form #G4251), 1:40,000 human recombinant H-PGDS (from 1 mg/ml), 0.5% DMSO and inhibitor (varying concentration). 3 μls of diluted inhibitor (dissolved in DMSO) was plated into a 384-well assay plate followed by a 24 μl addition of an enzyme solution containing h-PGDS, Trizma, MgCl2, IgG and L-Glutathione. After pre-incubation of inhibitor and enzyme solution for 10 minutes at room temperature, the reaction was initiated with a 3 μl addition of substrate solution in 10 mM HCl. The reaction was terminated after 40 second by the addition of 3 μl stop buffer containing FeCl2 and citric acid. After addition of 45 μl of TBA plates were heated for one hour in a 70° C. oven. Plates were cooled at room temperature overnight and read on a plate reader the next day with excitation @ 530 nm and emission @ 560 nm. IC50's of inhibitors were calculated with a 4-parameter fit using 11 inhibitor concentrations in duplicate with 1/2 log serial dilutions. […] The highest inhibitor concentration tested was typically 10 μM.

T1 sequence (O60760 whole entry, the tested form may be a part): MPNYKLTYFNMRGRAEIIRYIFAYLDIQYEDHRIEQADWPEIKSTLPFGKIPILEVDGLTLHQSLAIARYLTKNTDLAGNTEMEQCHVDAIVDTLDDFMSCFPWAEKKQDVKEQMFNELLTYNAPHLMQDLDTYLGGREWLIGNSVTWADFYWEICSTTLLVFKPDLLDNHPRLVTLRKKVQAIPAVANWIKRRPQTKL

| Compound | IC50 (human recombinant H-PGDS [3]) | other results |
| --- | --- | --- |
| O=C(NC1CCN(CC(F)(F)F)CC1)c1ccc(-c2cccc(F)c2)nc1 [Example 2, 6-(3-Fluorophenyl)-N-(1-(2,2,2-trifluoroethyl)piperidin-4-yl)nicotinamide] |  | IC50 (human recombinant H-PGDS [1]): 0.852 nM; early airway response (0-2 h after allergen challenge) [2]: not reduced; late airway response (4-8 h after antigen challenge) inhibited [2]: approximately 60% |
| O=C1CC(NC(=O)c2ccc(-c3cccc(F)c3)nc2)c2ccccc2N1 (centres unmarked) [Example 650, 6-(3-Fluorophenyl)-N-(2-oxo-1,2,3,4-tetrahydroquinolin-4-yl)nicotinamide] | 0.568 nM |  |
| O=C(N[C@H]1[C@@H]2CNC[C@@H]21)c1ccc(-c2cccc(F)c2)nc1 [Example 653, N-[(1R,5S,6s)-3-azabicyclo[3.1.0]hex-6-yl]-6-(3-fluorophenyl)nicotinamide di-hydrochloride] | 177 nM |  |

Further lines, with some results ahead:

| IC50 (human recombinant H-PGDS [3]) | Compound | other results |
| --- | --- | --- |
| 2.01 nM | O=C(N[C@H]1[C@@H]2CN(CC(F)(F)F)C[C@@H]21)c1ccc(-c2cccc(F)c2)nc1 [Example 651, 6-(3-Fluorophenyl)-N-((1R,5S,6S)-3-(2,2,2-trifluoroethyl)-3-aza-bicyclo[3.1.0]hexan-6-yl)nicotinamide] |  |
| 33.8 nM | CC(=O)N1C[C@@H]2[C@H](C1)[C@H]2NC(=O)c1ccc(-c2cccc(F)c2)nc1 [Example 654, N-[(1R,5S,6s)-3-acetyl-3-azabicyclo[3.1.0]hex-6-yl]-6-(3-fluorophenyl)nicotinamide] |  |
| 66.8 nM | CCCN1C[C@@H]2[C@H](C1)[C@H]2NC(=O)c1ccc(-c2cccc(F)c2)nc1 [Example 655] |  |
